Results taken from patent US6737383B1, “Herbicidal oxadiazolidines” (priority 1999, dated 2004).

Columns and labels:
[1] = tested on: cocklebur; assay: Test B pre/postemergence cocklebur; type: in vivo, Xanthium strumarium; settings: for Cocklebur plant response rating: scale of 0 to 10 where 0 is no effect and 10 is complete control
In short: (§1)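 Test chemicals in a non-phytotoxic solvent mixture with surfactant were sprayed preemergence onto planted seeds and postemergence onto plants 2 to 18 cm tall (1- to 4-leaf stage). After twelve to sixteen days in a greenhouse, injury was visually rated against untreated controls from 0 (no effect) to 10 (complete control).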

[2] = tested on: pigweed; assay: Test B pre/postemergence pigweed; type: in vivo, Amaranthus retroflexus; settings: for Redroot pigweed plant response rating: scale of 0 to 10 where 0 is no effect and 10 is complete control
In short: as §1

[3] = tested on: sugar beet; assay: Test B pre/postemergence sugar beet; type: in vivo, Beta vulgaris; settings: for Sugarbeets plant response rating: scale of 0 to 10 where 0 is no effect and 10 is complete control
In short: as §1

[4] = tested on: bamyardgrass; assay: Test B flood test barnyardgrass; type: in vivo, Echinochloa crus-galli
In short: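 Flood test on plants grown to the 2-leaf stage; treated plants kept in greenhouse twelve to sixteen days, then visually rated against controls on a 0 (no effect) to 10 (complete control) scale.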

[5] = tested on: winter wheat; assay: Test E winter wheat; type: in vivo, Triticum aestivum; settings: Postemergence, 0 to 100 scale, 0 is no effect, 100 is complete control
In short: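 Greenhouse test: for postemergence, foliar application at 1- to 4-leaf stage; compound in non-phytotoxic solvent with surfactant. Rating is visual, relative to untreated controls, about 21 to 28 days after treatment.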

[6] = tested on: blackgrass; assay: Test E blackgrass; type: in vivo, Alopecurus myosuroides; settings: Preemergence
[7] = tested on: green foxtail; assay: Test E green foxtail; type: in vivo, Setaria viridis; settings: Preemergence
[8] = tested on: Italian ryegrass; assay: Test E Italian ryegrass; type: in vivo, Lolium multiflorum; settings: Preemergence
[9] = tested on: winter wheat; assay: Test E winter wheat; type: in vivo, Triticum aestivum; settings: Preemergence
[10] = tested on: wild oat; assay: Test E wild oat; type: in vivo, Avena fatua; settings: Preemergence
[11] = tested on: winter barley; assay: Test E winter barley; type: in vivo, Hordeum vulgare; settings: Preemergence
[12] = Postemergence, Rate 125 g/ha, scale 0 to 10, 0 is no effect, 10 is complete control
[13] = Preemergence, Rate 62 g/ha, scale 0 to 10 (0 no effect, 10 complete control)
[14] = Rate 500 g/ha, Postemergence, scale 0 to 10, 0 no effect, 10 complete control
[15] = Rate 125 g/ha, 0 to 100 scale (0 no effect, 100 complete control)
[16] = Rate 500 g/ha, 0 to 100 scale (0 no effect, 100 complete control)

## CC(C)N(C(=O)n1oc(=O)n(C2CCC2)c1=O)c1ccc(F)cc1F [Compound 351]
[1]; [12]
  Plant response rating, Cocklebur: 0
[1]; [13]
  Plant response rating, Cocklebur: 0
[1]; Preemergence, Rate 125 g/ha
  Cocklebur plant response rating (0 to 10 scale): 0
[1]; Preemergence, Rate 250 g/ha
  Cocklebur plant response rating: 0
[1]; Preemergence, Rate 500 g/ha
  Cocklebur plant response rating: 0
[1]; Rate 62 g/ha, Postemergence
  Cocklebur plant response rating: 0
[1]; [14]
  Plant response rating, Cocklebur: 2
[2]; [12]
  Plant response rating, Redroot pigweed: 0
[2]; [13]
  Plant response rating, Redroot pigweed: 10
[2]; Preemergence, Rate 125 g/ha
  Redroot pigweed plant response rating (0 to 10 scale): 10
[2]; Preemergence, Rate 250 g/ha
  Redroot pigweed plant response rating: 10
[2]; Preemergence, Rate 500 g/ha
  Redroot pigweed plant response rating: 10
[2]; Rate 62 g/ha, Postemergence
  Redroot pigweed plant response rating: 0
[2]; [14]
  Plant response rating, Redroot pigweed: 7
[3]; [12]
  Plant response rating, Sugarbeets: 0
[3]; [13]
  Plant response rating, Sugarbeets: 2
[3]; Preemergence, Rate 125 g/ha
  Sugarbeets plant response rating (0 to 10 scale): 2
[3]; Preemergence, Rate 250 g/ha
  Sugarbeets plant response rating: 6
[3]; Preemergence, Rate 500 g/ha
  Sugarbeets plant response rating: 8
[3]; Rate 62 g/ha, Postemergence
  Sugarbeets plant response rating: 0
[3]; [14]
  Plant response rating, Sugarbeets: 2
[4]; Postemergence (flood test), Rate 125 g/ha, scale 0 to 10, 0 is no effect, 10 is complete control
  Plant response rating, Barnyardgrass: 3
[4]; Rate 62 g/ha, Postemergence (flood test species), scale of 0 to 10 where 0 is no effect and 10 is complete control
  Barnyardgrass plant response rating: 0
[4]; Rate 62 g/ha, flood test species, Pre-emergence, visual evaluation after twelve to sixteen days
  Plant response rating, Barnyardgrass (0 to 10 scale, 0 is no effect, 10 is complete control): 0
[4]; Rate 125 g/ha, Pre-emergence, flood test species, scale 0 to 10 where 0 is no effect and 10 is complete control
  Barnyardgrass plant response rating: 0
[4]; Rate 250 g/ha, Postemergence (flood test species), scale of 0 to 10 where 0 is no effect and 10 is complete control
  Plant response rating, Barnyardgrass: 3
[4]; Rate 250 g/ha, Pre-emergence, flood-test species, scale 0 to 10, 0 is no effect, 10 is complete control
  Barnyardgrass plant response rating: 0
[4]; Rate 500 g/ha, listed under Postemergence (flood test species), scale 0 to 10, 0 no effect, 10 complete control
  Plant response rating, Barnyardgrass: 5
[4]; Rate 500 g/ha, Pre-emergence, flood test species, scale 0 to 10 (0 no effect, 10 complete control)
  Barnyardgrass plant response rating: 0
[5]; Rate 125 g/ha
  Plant response rating, Wheat (winter): 60
[5]; Rate 250 g/ha
  Plant response rating, Wheat (winter): 70
[5]; Rate 500 g/ha
  Plant response rating, Wheat (winter): 75
[6]; [15]
  Plant response rating, Blackgrass: 35
[6]; Rate 250 g/ha, 0 to 100 scale
  Plant response rating, Blackgrass: 85
[6]; [16]
  Plant response rating, Blackgrass: 100
[7]; [15]
  Plant response rating, Green foxtail: 40
[7]; Rate 250 g/ha, 0 to 100 scale
  Plant response rating, Green foxtail: 90
[7]; [16]
  Plant response rating, Green foxtail: 85
[8]; [15]
  Plant response rating, I. Ryegrass: 55
[8]; Rate 250 g/ha, 0 to 100 scale
  Plant response rating, I. Ryegrass: 60
[8]; [16]
  Plant response rating, I. Ryegrass: 60
[9]; [15]
  Plant response rating, Wheat (winter): 50
[9]; Rate 250 g/ha, 0 to 100 scale
  Plant response rating, Wheat (winter): 60
[9]; [16]
  Plant response rating, Wheat (winter): 70
[10]; [15]
  Plant response rating, Wild oat: 70
[10]; Rate 250 g/ha, 0 to 100 scale
  Plant response rating, Wild oat: 70
[10]; [16]
  Plant response rating, Wild oat: 80
[11]; [15]
  Plant response rating, Barley (winter): 70
[11]; Rate 250 g/ha, 0 to 100 scale, 0 no effect, 100 complete control
  Plant response rating, Barley (winter): 70
[11]; [16]
  Plant response rating, Barley (winter): 80
